Earlier results on 10 compounds are cited in US8978468B2, “Nonvisual indication of an unwanted chemical in an ingestible substance” (priority 2009, dated 2015).

For data set [1] the following is noted: species and route not given.
The subject of data set [2] is mammal (species unspecified). Particulars: route not given.

Where two headings read alike, the source gives them in different places.

Consider 2-aminoethanol, for which, in the data set on rat (oral), the “Toxic Dose oral-rat LD50” value is “oral-rat LD50 1720 mg/kg”.

As for `CC1OCCC1S` (stereo not drawn) [2-methyltetrahydrofuran-3-thiol], the “Toxic Dose gavage-mouse LD50” value with mouse (gavage) is reported as “gavage-mouse LD50 1860 mg/kg”.

As to `CC(C)C(C)S` (stereo not drawn) [3-methylbutane-2-thiol], the “Toxic Dose gavage-rat LD50 [sex: M, F]” value with rat (gavage, sex: M, F) is on record as 540 mg/kg.

For the compound `NC1CCCCC1` [cyclohexanamine], in the data set on rat (in vivo, po), the “Toxic Dose oral-rat LD50” value is recorded as “oral-rat LD50 11 mg/kg”. Also, in data set [1], the “Toxic Dose LD50” value is “LD50 224 mg/kg”.

butane-1-thiol: the “Toxic Dose gavage-rat LD50” value in the data set on rat (gavage) is given as “gavage-rat LD50 1500 mg/kg”.

With `SC1CCCC1` [cyclopentanethiol], in the data set with mouse (oral, sex: M, F (5/group)), the “Toxic Dose oral-mouse LD50 [sex: M, F (5/group)]” value is recorded as “(5/group)] 2680 mg/kg”.

For propan-2-amine, the “Toxic Dose oral-rat LD50” value with rat (oral) is recorded as “oral-rat LD50 111 mg/kg”. Also, the “Toxic Dose mammal (species unspecified) LD50” value in data set [2] was “LD50 500 mg/kg”.

Turning to `NCCCC(=O)O` [4-aminobutanoic acid], the “Toxic Dose oral-mouse LD50” value in the data set with mouse (oral) was “oral-mouse LD50 12680 mg/kg”. In the data set with mouse (route not given), the “Toxic Dose mouse LD50” value was “mouse LD50 7230 mg/kg”.

As for 2-methylpropane-1-thiol, in the data set on rat (gavage), the “Toxic Dose gavage-rat LD50” value is listed as “gavage-rat LD50 7168 mg/kg”. The “Toxic Dose oral-rat LD50” value with rat (oral) is listed as “oral-rat LD50 7168 mg/kg”.

Turning to propan-1-amine, the “Toxic Dose oral-rat LD50” value with rat (oral) is “oral-rat LD50 370 mg/kg”. In data set [2], the “Toxic Dose mammal (species unspecified) LD50” value was “LD50 580 mg/kg”.
